Experimental data published in publication PMC3914206.

Columns and labels:
Format in all cases: binding
Set-up in all cases: KINOMEscan: ABL1(F317L)-phosphorylated / KINOMEscan: ABL1(H396P)-nonphosphorylated / KINOMEscan: ABL1(H396P)-phosphorylated / KINOMEscan: ABL1(M351T)-phosphorylated / KINOMEscan: ABL1(T315I)-phosphorylated / KINOMEscan: ABL1-nonphosphorylated / KINOMEscan: ABL1-phosphorylated / KINOMEscan: ACVR2A / KINOMEscan: ACVR2B / KINOMEscan: ADCK3 / KINOMEscan: ADCK4 / KINOMEscan: AKT1 / KINOMEscan: AKT3 / KINOMEscan: ALK / KINOMEscan: ARK5 / KINOMEscan: AURKA / KINOMEscan: AURKC / KINOMEscan: BIKE / KINOMEscan: BMPR1A / KINOMEscan: BMPR1B / KINOMEscan: BMX / KINOMEscan: BRK / KINOMEscan: BRSK1 / KINOMEscan: BRSK2 / KINOMEscan: CAMK1 / KINOMEscan: CAMK1D / KINOMEscan: CAMK1G / KINOMEscan: CAMK2A / KINOMEscan: CAMK2B / KINOMEscan: AAK1 / KINOMEscan: CAMK2D / KINOMEscan: CAMK2G / KINOMEscan: ABL1(F317I)-nonphosphorylated / KINOMEscan: ABL1(F317I)-phosphorylated / KINOMEscan: ABL1(F317L)-nonphosphorylated: unit: % Ctrl
Details in all cases: Compound Concentration 10 µM
panel of 442 kinases [1] = biological target: T1, panel of 442 kinases (Homo sapiens, UniProt P68400)
T1 construct: purchased KINOMEscan
From the text: (§1) We assessed the selectivity of members of this scaffold using the KINOMEscan methodology across a near comprehensive panel of 442 kinases [[18,27]].

panel of 442 kinases [2] = biological target: T2, panel of 442 kinases (Homo sapiens, UniProt Q05397)
T2 construct: purchased KINOMEscan
From the text: as §1

panel of 442 kinases [3] = biological target: T3, panel of 442 kinases (Homo sapiens, UniProt Q9HC98)
T3 construct: purchased KINOMEscan
From the text: as §1

panel of 442 kinases [4] = biological target: T4, panel of 442 kinases (Homo sapiens, UniProt Q9NSY1)
T4 construct: purchased KINOMEscan
From the text: as §1

T1 sequence (P68400 whole entry): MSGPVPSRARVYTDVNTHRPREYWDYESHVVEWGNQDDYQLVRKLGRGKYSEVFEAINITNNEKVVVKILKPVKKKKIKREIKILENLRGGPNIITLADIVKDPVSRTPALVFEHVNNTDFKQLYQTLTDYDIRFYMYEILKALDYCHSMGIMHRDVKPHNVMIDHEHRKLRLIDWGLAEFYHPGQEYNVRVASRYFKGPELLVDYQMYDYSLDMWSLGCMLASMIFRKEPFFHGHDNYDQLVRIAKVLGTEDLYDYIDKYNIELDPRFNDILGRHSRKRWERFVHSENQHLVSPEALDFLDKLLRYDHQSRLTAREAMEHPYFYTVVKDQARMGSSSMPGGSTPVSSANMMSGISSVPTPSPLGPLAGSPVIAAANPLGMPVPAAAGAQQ
T3 sequence (Q9HC98 whole entry): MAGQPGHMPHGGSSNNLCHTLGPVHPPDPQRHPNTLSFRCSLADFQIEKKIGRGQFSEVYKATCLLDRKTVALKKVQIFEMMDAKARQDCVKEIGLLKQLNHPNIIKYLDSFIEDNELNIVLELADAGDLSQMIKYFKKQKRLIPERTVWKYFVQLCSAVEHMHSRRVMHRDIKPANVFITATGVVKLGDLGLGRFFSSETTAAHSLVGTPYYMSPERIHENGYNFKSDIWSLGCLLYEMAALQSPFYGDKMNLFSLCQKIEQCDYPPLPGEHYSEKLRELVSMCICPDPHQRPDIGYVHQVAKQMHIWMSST
T4 sequence (Q9NSY1 whole entry): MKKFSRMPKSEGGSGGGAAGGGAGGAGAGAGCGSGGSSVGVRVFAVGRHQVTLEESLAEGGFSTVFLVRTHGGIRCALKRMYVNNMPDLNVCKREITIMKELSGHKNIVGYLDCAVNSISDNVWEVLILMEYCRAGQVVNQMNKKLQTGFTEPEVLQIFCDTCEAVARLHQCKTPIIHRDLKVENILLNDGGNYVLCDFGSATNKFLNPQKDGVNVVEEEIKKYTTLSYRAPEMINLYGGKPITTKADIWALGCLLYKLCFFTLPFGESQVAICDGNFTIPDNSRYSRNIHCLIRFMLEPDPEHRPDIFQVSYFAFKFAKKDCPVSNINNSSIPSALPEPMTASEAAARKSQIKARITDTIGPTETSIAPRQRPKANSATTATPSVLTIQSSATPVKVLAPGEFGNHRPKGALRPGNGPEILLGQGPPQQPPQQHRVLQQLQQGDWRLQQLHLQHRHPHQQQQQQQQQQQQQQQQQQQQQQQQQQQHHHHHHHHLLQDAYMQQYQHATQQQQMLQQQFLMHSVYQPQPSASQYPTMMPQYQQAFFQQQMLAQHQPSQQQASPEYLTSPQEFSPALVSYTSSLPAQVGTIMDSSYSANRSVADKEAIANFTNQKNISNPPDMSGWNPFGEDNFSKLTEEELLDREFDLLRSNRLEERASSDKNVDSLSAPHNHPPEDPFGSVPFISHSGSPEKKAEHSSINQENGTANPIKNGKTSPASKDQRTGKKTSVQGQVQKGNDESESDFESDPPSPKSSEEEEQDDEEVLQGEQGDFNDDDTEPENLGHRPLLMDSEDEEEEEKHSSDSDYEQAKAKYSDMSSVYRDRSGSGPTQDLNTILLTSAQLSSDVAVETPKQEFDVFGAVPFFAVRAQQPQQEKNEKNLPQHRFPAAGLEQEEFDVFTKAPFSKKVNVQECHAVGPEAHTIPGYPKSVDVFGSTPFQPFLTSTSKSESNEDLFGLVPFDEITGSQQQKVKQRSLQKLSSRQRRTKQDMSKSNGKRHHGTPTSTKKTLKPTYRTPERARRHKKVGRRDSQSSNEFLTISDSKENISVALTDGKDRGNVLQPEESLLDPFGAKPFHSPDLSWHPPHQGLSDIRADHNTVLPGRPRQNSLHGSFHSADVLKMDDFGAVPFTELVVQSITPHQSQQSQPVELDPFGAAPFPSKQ
T2 sequence (Q05397 whole entry): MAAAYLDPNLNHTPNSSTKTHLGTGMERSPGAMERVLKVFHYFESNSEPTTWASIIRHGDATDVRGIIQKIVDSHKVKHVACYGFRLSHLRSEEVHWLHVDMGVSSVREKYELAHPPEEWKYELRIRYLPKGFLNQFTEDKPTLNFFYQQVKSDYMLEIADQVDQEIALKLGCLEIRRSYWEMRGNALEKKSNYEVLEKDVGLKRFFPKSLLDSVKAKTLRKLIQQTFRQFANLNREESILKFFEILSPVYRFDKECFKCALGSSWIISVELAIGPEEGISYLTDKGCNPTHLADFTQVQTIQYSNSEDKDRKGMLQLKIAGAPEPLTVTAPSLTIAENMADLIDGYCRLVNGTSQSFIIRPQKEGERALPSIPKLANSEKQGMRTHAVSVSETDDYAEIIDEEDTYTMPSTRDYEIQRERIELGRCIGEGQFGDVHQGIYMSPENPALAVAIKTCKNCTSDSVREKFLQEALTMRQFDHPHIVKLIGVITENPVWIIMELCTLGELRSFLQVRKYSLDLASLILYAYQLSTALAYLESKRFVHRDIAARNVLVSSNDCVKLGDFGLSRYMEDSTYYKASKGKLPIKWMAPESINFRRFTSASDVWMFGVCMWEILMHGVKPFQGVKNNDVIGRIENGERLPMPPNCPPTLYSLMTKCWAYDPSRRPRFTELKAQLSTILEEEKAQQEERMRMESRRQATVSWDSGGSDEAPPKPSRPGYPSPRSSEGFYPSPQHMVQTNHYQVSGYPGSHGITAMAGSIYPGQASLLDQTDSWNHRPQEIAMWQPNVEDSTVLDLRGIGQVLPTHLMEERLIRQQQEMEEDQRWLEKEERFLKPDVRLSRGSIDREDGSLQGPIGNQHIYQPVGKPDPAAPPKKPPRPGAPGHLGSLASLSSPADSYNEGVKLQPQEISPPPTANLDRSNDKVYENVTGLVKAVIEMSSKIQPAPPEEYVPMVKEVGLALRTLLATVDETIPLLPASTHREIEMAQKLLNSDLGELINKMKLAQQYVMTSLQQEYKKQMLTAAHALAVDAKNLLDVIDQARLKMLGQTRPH

Row | SMILES | KINOMEscan: CSNK2A1 (panel of 442 kinases [1]) | KINOMEscan: FAK (panel of 442 kinases [2]) | KINOMEscan: NEK6 (panel of 442 kinases [3]) | KINOMEscan: BIKE (panel of 442 kinases [4])
1 | COc1cc(C(=O)N2CCC(N3CCN(C)CC3)CC2)ccc1Nc1ncc2c(n1)N(C)c1ccccc1C(=O)N2C [15 (LRRK2-IN-1)] | 100 | 34 | 76 | 100
2 | CCOc1cc(C(=O)N2CCC(N3CCN(C)CC3)CC2)ccc1Nc1ncc2c(n1)N(C1CCCC1)c1ccccc1C(=O)N2C [Compound 26] | 89 | 57 | 100 | 100
3 | COc1cc(C(=O)N2CCC(N3CCN(C)CC3)CC2)ccc1Nc1ncc2c(n1)N1CCc3cccc(c31)C(=O)N2C [Compound 24] |  |  | 56 | 73
4 | COc1cc(C(=O)N2CCC(N3CCN(C)CC3)CC2)ccc1Nc1ncc2c(n1)N(C1CCCC1)c1ccccc1C(=O)N2C [Compound 25, 11-cyclopentyl-2-((2-methoxy-4-(4-(4-methylpiperazin-1-yl)piperidine-1-carbonyl)phenyl)amino)-5-methyl-5H-benzo[e]pyrimido[5,4-b][1,4]diazepin-6(11H)-one] | 100 | 19 | 100 | 93
